# From patent US5929035A, “Methods of treating intestinal disorders” (Regents of the University of Michigan, priority 1998, dated 1999)
# “And” between values parts separate entries of the source, which are not always exact repeats. Identical values can stand only once.
# How the values were obtained:
# [1] = test system: longitudinal and circular muscle from rat colon (proximal colon and distal colon)
# [2] = test system: longitudinal and circular muscle layer from the stomach and small intestine; set-up: species or system rat
# [3] = test system: longitudinal and circular muscle of the rat proximal colon
# [4] = test system: longitudinal muscle from rat proximal colon
# [5] = test system: longitudinal muscle strips from rat ileum
# [6] = test system: longitudinal muscle strips from rat gastric body
# [7] = test system: longitudinal muscle strips from rat proximal colon
# [8] = test system: longitudinal muscle strips of proximal colon from BAC- or vehicle-treated rats; assay: Benzalkonium chloride (BAC) myenteric plexus ablation, organ bath experiments; set-up: species or system rat
# Description: This example examined benzalkonium chloride (BAC)-treatment. […] EFS caused frequency-dependent and TTX-sensitive contractions in vehicle-treated tissues but not BAC-treated tissues. However, carbachol contracted both vehicle- and BAC-treated tissues with the same degree. These previous studies indicate that chronic ablation of the myenteric plexus by serosal application of BAC essentially eliminates neuronally mediated responses without a concomitant alteration in muscle contractility. To investigate if the action of OFQ is mediated via intramural myenteric plexus, BAC (0.1%) was applied to the serosal surface of the proximal colon every 5 min for 30 min and then rinsed off with saline. Saline-treated group served as controls. Two weeks after BAC- or saline-treatment, the longitudinal muscle strips were used for the organ bath experiments.
# The area under the curve was calculated using Planix 7 (Sokkia Corporation,Overland Park, Kans.) and expressed as a motility index. The area under the curve of basal contraction was evaluated over 10 min in each experiment. The area under the curve of antagonist-induced contractions and OFQ-induced contractions was also evaluated over 10 min. The motility index was compared between basal contractions and OFQ-induced contractions in each experiment.
# [9] = test system: 3H-ACh release from longitudinal muscle strips of ileum; set-up: species or system rat
# [10] = test system: 3H-ACh release from longitudinal muscle strips of gastric body; set-up: species or system rat
# [11] = test system: 3H-ACh release from longitudinal muscle strips of proximal colon; set-up: species or system rat
# [12] = test system: longitudinal muscle from the rat proximal colon
# proximal colon = test system: proximal colon; set-up: species or system rats; conditions: rat, in vivo, iv
# stomach = test system: stomach; set-up: species or system rats; conditions: rat, in vivo, iv
# colonic transit = test system: colonic transit; set-up: species or system rats; conditions: rat, in vivo, sc
# gastrointestinal transit = test system: gastrointestinal transit; set-up: species or system rats; conditions: rat, in vivo, sc
# opioid receptor = conditions: cited from earlier work
# mouse vas deferens = conditions: cited from earlier work
# guinea pig ileum = conditions: cited from earlier work
compound,measurement,setting,value
"CC(C)C[C@H](NC(=O)[C@H](CCCCN)NC(=O)[C@H](CCCN=C(N)N)NC(=O)[C@H](C)NC(=O)[C@H](CO)NC(=O)[C@H](CCCCN)NC(=O)[C@H](CCCN=C(N)N)NC(=O)[C@H](C)NC(=O)CNC(=O)[C@@H](NC(=O)[C@H](Cc1ccccc1)NC(=O)CNC(=O)CNC(=O)[C@@H](N)Cc1ccccc1)[C@@H](C)O)C(=O)N[C@@H](C)C(=O)N[C@@H](CC(N)=O)C(=O)N[C@@H](CCC(N)=O)C(=O)O [OFQ, Phe-Gly-Gly-Phe-Thr-Gly-Ala-Arg-Lys-Ser-Ala-Arg-Lys-Leu-Ala-Asn-Gln]",contractions in longitudinal muscle of proximal colon compared with distal colon (in words),[1],much greater
same,contractions in longitudinal muscle of proximal colon relative to distal colon,[1],2-3 fold
same,region of rat gastrointestinal tract in which contractions were induced,[1],induced contractions only in the colon
same,threshold OFQ concentration inducing contractions,[1],10^-9 M
same,contractions in longitudinal and circular muscle layer from stomach and small intestine,[2],failed to elicit significant contractions
same,contractions at 10^-7 M compared with 10^-6 M,[3],not significantly different
same,dose dependence of induced contractions,[3],in a dose-dependent manner
same,"maximal effect, increase of basal contraction",[3],278%±24% and 215%±32%
same,persistence of strong phasic contractions,[3],10 to 15 min
same,strips showing a potent initial phasic contraction followed by a phasic response,[3],60.9%
same,strips showing a smaller initial contraction followed by a gradually increasing phasic response,[3],26.4%
same,strips showing only a slight initial contraction followed by a pronounced phasic response,[3],12.6%
same,OFQ-induced contractions in Ca2+-free medium,[4],abolished
same,EFS-evoked muscular contraction reduced to,[5],41.2±8.5%
same,EFS-evoked on- and off-contraction in ileum,[5],significantly reduced
same,dose dependence of reduction of EFS-evoked muscular contraction,[5],in a dose dependent manner
same,EFS-evoked muscular contraction reduced to,[6],85.2±5.6%
same,EFS-evoked of-contraction in the stomach,[6],significantly reduced
same,dose dependence of reduction of EFS-evoked muscular contraction,[6],in a dose dependent manner
same,off-contraction in response to EFS of the proximal colon,[7],no inhibitory effects
same,reduction of EFS-evoked muscular contraction,[7],not in the proximal colon
same,contraction of longitudinal muscle from vehicle-treated rats,[8],caused significant contractions
same,contraction of longitudinal muscles from BAC-treated rats,[8],no contractile effects
same,3H-ACh release in response to EFS reduced to,[9],44.7±5.8%
same,basal release of 3H-ACh,[9],no effects
same,3H-ACh release in response to EFS reduced to,[10],88.1±4.3%
same,basal release of 3H-ACh,[10],no effects
same,basal release of 3H-ACh,[11],no effects
same,inhibitory effect on EFS-evoked 3H-ACh release,[11],not observed
same,OFQ-induced contractions in the presence of TTX,[12],failed to elicit additional contractions
same,muscular contractions in the proximal colon,proximal colon,significantly increased muscular contractions
same,muscular contractions in the stomach,stomach,not in the stomach
same,colonic transit,colonic transit,significantly accelerated
same,gastrointestinal transit,gastrointestinal transit,without affecting
same,activity at the opioid receptor,opioid receptor,does not show any activity
same,effect on EFS-evoked muscular contraction,mouse vas deferens,potent inhibitory effects
same,effect on EFS-evoked muscular contraction,guinea pig ileum,potent inhibitory effects
